This passage reports mutagenic call results from PubChem BioAssay AID1259407 (Chemical Carcinogenesis Research Information System (CCRIS), 2018).

Activity calls are given as the source filed them. How the calls were made is not given here.

This series relates to CCRIS mutagenicity, Ames/micronucleus/aberration tests. Kind of series: CCRIS mutagenicity studies.
Setting [1] is: Test System: AMES SALMONELLA TYPHIMURIUM, Strain/Indicator: TA98, Metabolic Activation: NONE, Method: STANDARD PLATE.
The mark [2] stands for this setting: Test System: AMES SALMONELLA TYPHIMURIUM, Strain/Indicator: TA98, Metabolic Activation: RAT, LIVER, S-9, AROCLOR 1254, Method: STANDARD PLATE.
Setting [3] is: Test System: AMES SALMONELLA TYPHIMURIUM, Strain/Indicator: TA100, Metabolic Activation: NONE, Method: STANDARD PLATE.
[4] abbreviates: Test System: AMES SALMONELLA TYPHIMURIUM, Strain/Indicator: TA100, Metabolic Activation: RAT, LIVER, S-9, AROCLOR 1254, Method: STANDARD PLATE.
[5] abbreviates: Test System: AMES SALMONELLA TYPHIMURIUM, Strain/Indicator: TA98, Metabolic Activation: NONE, Method: PREINCUBATION
[6] abbreviates: Test System: AMES SALMONELLA TYPHIMURIUM, Strain/Indicator: TA100, Metabolic Activation: NONE, Method: PREINCUBATION
The mark [7] stands for this setting: Test System: AMES SALMONELLA TYPHIMURIUM, Strain/Indicator: TA1537, Metabolic Activation: NONE, Method: PREINCUBATION

As for `Clc1ccccn1`, the mutagenic call runs as follows: (Test System: AMES SALMONELLA TYPHIMURIUM, Strain/Indicator: TA97, Metabolic Activation: NONE, Method: STANDARD PLATE) “inactive; negative”; (Test System: AMES SALMONELLA TYPHIMURIUM, Strain/Indicator: TA97, Metabolic Activation: RAT, LIVER, S-9, AROCLOR 1254, Method: STANDARD PLATE) “active; positive”; under setting [1], “inactive; negative”; under setting [2], “active; positive”; under setting [3], “inactive; negative”; under setting [4], “active; positive”. Further, the mutagenic call by setting is: (Test System: AMES SALMONELLA TYPHIMURIUM, Strain/Indicator: TA102, Metabolic Activation: NONE, Method: STANDARD PLATE) “inactive; negative”; (Test System: AMES SALMONELLA TYPHIMURIUM, Strain/Indicator: TA102, Metabolic Activation: RAT, LIVER, S-9, AROCLOR 1254, Method: STANDARD PLATE) “active; positive”; (Test System: MOUSE LYMPHOMA, Strain/Indicator: L5178Y (TK+/TK-), Metabolic Activation: NONE) “active; positive”; (Test System: MOUSE LYMPHOMA, Strain/Indicator: L5178Y (TK+/TK-), Metabolic Activation: RAT, LIVER, S-9, AROCLOR 1254) “active; positive”.

Regarding `CC(C)c1ccc2oc3nc(N)c(C(=O)O)cc3c(=O)c2c1`, the mutagenic call by setting is: under setting [5], “inactive; negative”; (Test System: AMES SALMONELLA TYPHIMURIUM, Strain/Indicator: TA98, Metabolic Activation: RAT, LIVER, S-9, AROCLOR 1254, Method: PREINCUBATION) “inactive; negative”; under setting [6], “inactive; negative”; (Test System: AMES SALMONELLA TYPHIMURIUM, Strain/Indicator: TA100, Metabolic Activation: RAT, LIVER, S-9, AROCLOR 1254, Method: PREINCUBATION) “inactive; negative”; under setting [7], “inactive; negative”; (Test System: AMES SALMONELLA TYPHIMURIUM, Strain/Indicator: TA1537, Metabolic Activation: RAT, LIVER, S-9, AROCLOR 1254, Method: PREINCUBATION) “inactive; negative”. The mutagenic call was “inactive; negative” (Test System: E. COLI, Strain/Indicator: WP2 (HCR), Metabolic Activation: NONE, Method: PREINCUBATION) and “inactive; negative” (Test System: E. COLI, Strain/Indicator: WP2 (HCR), Metabolic Activation: RAT, LIVER, S-9, AROCLOR 1254, Method: PREINCUBATION).

Turning to `COC1=CC(=O)O[C@@H](CCc2ccc3c(c2)OCO3)C1`, for the setting “Test System: Mouse lymphoma cells, Strain/Indicator: L5178Y ( tk+/tk-), Metabolic Activation: Human, Liver, S-9, Method: Suspension/plate”, the mutagenic call was “inactive; negative”.

On to `Cc1cc(O)c2c(c1)C(=O)c1c(O)c(O)cc(O)c1C2=O`, for which the mutagenic call (Test System: AMES SALMONELLA TYPHIMURIUM, Strain/Indicator: TA1537, Metabolic Activation: NONE, Method: STANDARD PLATE) is “inactive; negative” and the mutagenic call (Test System: AMES SALMONELLA TYPHIMURIUM, Strain/Indicator: TA1537, Metabolic Activation: RAT, LIVER, S-9, PCB, Method: STANDARD PLATE) is “active; positive”.

With `CNC(=C[N+](=O)[O-])NCCSCc1ccc(CN(C)C)o1`, the mutagenic call (Test System: AMES SALMONELLA TYPHIMURIUM, Strain/Indicator: TA92, Metabolic Activation: NONE, Method: PREINCUBATION) was “inactive; negative”; the mutagenic call (Test System: AMES SALMONELLA TYPHIMURIUM, Strain/Indicator: TA92, Metabolic Activation: RAT, LIVER, S-9, PHENOBARBITAL AND 5,6-BENZOFLAVONE, Method: PREINCUBATION) was “inactive; negative”; the mutagenic call (Test System: AMES SALMONELLA TYPHIMURIUM, Strain/Indicator: TA94, Metabolic Activation: NONE, Method: PREINCUBATION) was “inactive; negative”; the mutagenic call (Test System: AMES SALMONELLA TYPHIMURIUM, Strain/Indicator: TA94, Metabolic Activation: RAT, LIVER, S-9, PHENOBARBITAL AND 5,6-BENZOFLAVONE, Method: PREINCUBATION) is “inactive; negative”; the mutagenic call under setting [5] was “inactive; negative”; the mutagenic call (Test System: AMES SALMONELLA TYPHIMURIUM, Strain/Indicator: TA98, Metabolic Activation: RAT, LIVER, S-9, PHENOBARBITAL AND 5,6-BENZOFLAVONE, Method: PREINCUBATION) was “inactive; negative”. Moreover, the mutagenic call is “inactive; negative” under setting [6]; “inactive; negative” (Test System: AMES SALMONELLA TYPHIMURIUM, Strain/Indicator: TA100, Metabolic Activation: RAT, LIVER, S-9, PHENOBARBITAL AND 5,6-BENZOFLAVONE, Method: PREINCUBATION); “inactive; negative” (Test System: AMES SALMONELLA TYPHIMURIUM, Strain/Indicator: TA1535, Metabolic Activation: NONE, Method: PREINCUBATION); “inactive; negative” (Test System: AMES SALMONELLA TYPHIMURIUM, Strain/Indicator: TA1535, Metabolic Activation: RAT, LIVER, S-9, PHENOBARBITAL AND 5,6-BENZOFLAVONE, Method: PREINCUBATION); “inactive; negative” under setting [7]; “inactive; negative” (Test System: AMES SALMONELLA TYPHIMURIUM, Strain/Indicator: TA1537, Metabolic Activation: RAT, LIVER, S-9, PHENOBARBITAL AND 5,6-BENZOFLAVONE, Method: PREINCUBATION). The mutagenic call was “inactive; negative” (Test System: AMES SALMONELLA TYPHIMURIUM, Strain/Indicator: TA1538, Metabolic Activation: NONE, Method: PREINCUBATION); “inactive; negative” (Test System: AMES SALMONELLA TYPHIMURIUM, Strain/Indicator: TA1538, Metabolic Activation: RAT, LIVER, S-9, PHENOBARBITAL AND 5,6-BENZOFLAVONE, Method: PREINCUBATION); “inactive; negative” (Test System: E. COLI, Strain/Indicator: WP2 UVRA, Metabolic Activation: NONE, Method: PREINCUBATION); “inactive; negative” (Test System: E. COLI, Strain/Indicator: WP2 UVRA, Metabolic Activation: RAT, LIVER, S-9, PHENOBARBITAL AND 5,6-BENZOFLAVONE, Method: PREINCUBATION).

Consider `c1ccc2c(c1)ccc1c2ccc2c3ccccc3ccc21`, for which the mutagenic call (Test System: AMES SALMONELLA TYPHIMURIUM, Strain/Indicator: TA100, Metabolic Activation: MOUSE, LIVER, S-10, AROCLOR 1254) is “active; positive”.

For `O=C(O)[C@H]1OC(Oc2c3ccccc3c3ccc4cccc5ccc2c3c54)[C@H](O)[C@@H](O)[C@@H]1O` (stereo not given in full), the mutagenic call is “inactive; negative” under setting [5] and “inactive; negative” (Test System: AMES SALMONELLA TYPHIMURIUM, Strain/Indicator: TA98, Metabolic Activation: RAT, LUNG, S-9, Method: PREINCUBATION).

For `Cc1ccc(S(=O)(=O)Oc2ccc(N=Nc3ccc(-c4ccc(N=Nc5c(S(=O)(=O)O)cc6cc(S(=O)(=O)O)ccc6c5O)cc4C)c(C)c3)cc2)cc1`, the mutagenic call (Test System: AMES SALMONELLA TYPHIMURIUM, Strain/Indicator: TA98, Metabolic Activation: HAMSTER, LIVER, S-9, Method: PREINCUBATION (PRIVAL METHOD)) is “inactive; negative”.

For the compound `O=C1c2ccccc2-c2ccc3ccccc3c21`, the mutagenic call is, setting by setting: under setting [1], “inactive; negative”; under setting [2], “inactive; negative”; under setting [3], “inactive; negative”; under setting [4], “inactive; negative”.
